This test relates to Dog PRP. Briefly: In-Vitro Platelet Aggregation in PRP (ADP-induced). In kind it is cell-based. The conditions noted are these: dog platelet-rich plasma, ADP-induced aggregation (50 μm final concentration), 37° C.; for Dog PRP % Inhibition: Test Concentration 1 × 10^-5; for IC50: 1 minute preincubation, linear regression of dose response curve. On the procedure: Healthy male or female dogs were fasted for 8 hours prior to drawing blood; then 30 ml whole blood was collected using a butterfly needle and 30 cc plastic syringe with 3 ml of 0.129M buffered sodium citrate (3.8%). The syringe was rotated carefully as blood was drawn to mix the citrate. Platelet-rich plasma (PRP) was prepared by centrifugation at 975× g for 3.17 minutes at room temperature, allowing the centrifuge to coast to a stop without braking. The PRP was removed from the blood with a plastic pipette and placed in a plastic capped, 50 ml Corning conical sterile centrifuge tube which was held at room temperature. Platelet poor plasma (PPP) was prepared by centrifuging the remaining blood at 2000× g for 15 minutes at room temperature allowing the centrifuge to coast to a stop without braking. The PRP was adjusted with PPP to a count of 2-3×10^8 platelets per ml. 400 μl of the PRP preparation and 50 μl of the compound to be tested as prepared below or saline were preincubated for 1 minute at 37° C. in a BioData aggregometer (BioData, Horsham, Pa.). 50 μl of adenosine 5'diphosphate (ADP) (50 μm final concentration) was added to the cuvettes and the aggregation was monitored for 1 minute. The test compounds were prepared by the following procedure. The compound was dissolved in 100% ethanol at a concentration of 10^-2 M. It was vortexed for 30 seconds followed by the addition of 1.1 equivalents of 1N NaOH. This solution was mixed for 30 minutes at room temperature. After the 30 minutes of mixing, the compound solution was brought to a working concentration of 10^-3 M with double distilled water. All compounds are tested in duplicate. Results are calculated as follows:
Percent of control= (maximal OD minus initial OD of compound) divided by (maximal OD minus initial OD of control saline)!×100. The % inhibition=100-(percent of control).
The assay results for the representative compounds of the present invention are set forth in Table A. Also in Table A, two readings given in a single box indicate that two trials, rather than a single trial, were run for that particular compound in that particular assay.

The mark [1] stands for this setting: Canis lupus familiaris, Platelet.

Experimental findings from patent publication US5504106A, “Phenyl amidine alkanoic acids and lactones useful as platelet aggregation inhibitors” (G. D. Searle & Co., priority 1994, dated 1996) are described below.

Several values for one entry are separate records, joined by “and”; a condition that tells them apart may be missing. Equal entries are not always repeated. Structures can show the parent of a compound that is named as a salt.

With `N=C(N)c1ccc(CCCCC2CCCC(=O)O2)cc1` (racemic) [6-4-(4-(aminoiminomethyl)phenyl)butyl)tetrahydro-2H -pyran-2-one], the “Dog PRP % Inhibition” value is 29% and 38%.
Regarding `COC(=O)CC1CC(=O)OC(CCCCc2ccc(C(=N)N)cc2)C1` (racemic) [(±)-cis-methyl 2-4-4-(aminoiminomethyl)phenyl!butyl!tetrahydro-6-oxo-2H-pyran-4-acetate], 4 µM corresponded to half-maximal inhibition (IC50) and the “Dog PRP % Inhibition” value came out at 100%.
`N=C(N)c1ccc(CCCC[C@@H]2C[C@H](c3cccnc3)CC(=O)O2)cc1` (relative stereo) [(±)-cis-6-4-4-(Aminoiminomethyl)phenyl)butyl!tetrahydro-4-(3-pyridinyl)-2H-pyran-2-one, ditrifluoroacetate]: the “Dog PRP % Inhibition” value worked out at 100%. Under setting [1], half-maximal inhibition (IC50) required 0.16 µM.
For `C[C@@H]1CC(=O)O[C@H](CCCCc2ccc(C(=N)N)cc2)C1` (relative stereo) [(±)-cis-6-4-4-(Aminoiminomethyl)phenyl)butyl!tetrahydro-4-methyl-2H-pyran-2-one, trifluoroacetate] the same measures were 74% and 7.1 µM.
For `N=C(N)c1ccc(CCCC[C@@H]2C[C@H](c3ccccc3)CC(=O)O2)cc1` (relative stereo) [(±)-cis-6-4-4-(Aminoiminomethyl)phenyl)butyl!tetrahydro-4-phenyl-2H-pyran-2-one, trifluoroacetate] the same measures were 100% and 4.2 µM.
For `N=C(N)c1ccc(CCCC[C@@H]2C[C@H](CS(=O)(=O)c3ccccc3)CC(=O)O2)cc1` (relative stereo) [(±)-cis-6-4-4-(aminoiminomethyl)phenyl!butyl!tetrahydro-4-(phenylsulfonyl)methyl!-2H-pyran-2-one, trifluoroacetate] the same measures were 100% and 2.6 µM.
Consider `N=C(N)c1ccc(CCCC[C@@H]2C[C@H](O)CC(=O)O2)cc1` (relative stereo) [(±)-cis-6-4-4-Aminoiminomethyl)phenyl!butyl!tetrahydro-4-hydroxy-2H-pyran-2-one, trifluoroacetate], for which the IC50 is 4.1 µM; the “Dog PRP % Inhibition” value is 89% and 96%. Also, the 50% inhibitory concentration (IC50) under setting [1] turned out to be 5.3 µM.
`C=C[C@@H]1CC(=O)O[C@H](CCCCc2ccc(C(=N)N)cc2)C1` (relative stereo) [(±)-cis-6-4-(4-(Aminoiminomethyl)phenyl)butyl!-4-ethenyl-tetrahydro-2H-pyran-2-one, trifluoroacetate]: the “Dog PRP % Inhibition” value stood at 100%. The compound further showed an IC50 under setting [1] of 2.6 µM.
Consider `N=C(N)c1ccc(CCCC[C@@H]2C[C@@H](c3ccccc3)CC(=O)O2)cc1` (relative stereo) [(±)-trans-6-4-4-(Aminoimino)phenyl)butyl!tetrahydro-4-phenyl-2H-pyran-2-one, trifluoroacetate], for which the “Dog PRP % Inhibition” value is 7%.
Same read-out and setting: the value for `N=C(N)c1ccc(CCCC[C@@H]2C[C@@H](O)CC(=O)O2)cc1` (relative stereo) [(±)-trans-6-4-4-(Aminoiminomethyl)phenyl!butyl!tetrahydro-4-hydroxy-2H-pyran-2-one, trifluoroacetate] was 36%.
Compound `N=C(N)c1ccc(NC(=O)CC[C@@H]2C[C@H](O)CC(=O)O2)cc1` [N-4-(aminoiminomethyl)phenyl!3,4,5,6-tetrahydro-6-oxo-4S-hydroxy-2H-pyran-2R-propanamide, trifluoroacetate] yielded an IC50 under setting [1] of 0.35 µM.
Under setting [1], `N=C(N)c1ccc(NC(=O)CCC2CCCC(=O)O2)cc1` (centres unmarked) [N-4-(aminoiminomethyl)phenyl!tetrahydro-6-oxo-2H-pyran-2-propanamide, trifluoroacetate] displayed an IC50 of 2.9 µM.
